This note sets out measurements from patent publication US11364244B2, “Compositions for treatment of muscular disorders” (ONCOCROSS CO., LTD., priority 2018, dated 2022).

Series [1] concerns mice transplanted with colorectal cancer cells CT26. The series can be described thus: Cancer-associated muscle and fat reduction (CT26 transplant + 5-FU, MRI). Format: in vivo, mouse. The settings on record: for fat mass / muscle mass: CT26 + 5-FU mice, treated alone or in combination, MRI every week. On the procedure: Cancer-associated sarcopenia was induced by administering 5-FU (5-fluorouracil) as an anticancer agent to mice transplanted with colorectal cancer cells CT26. […] MRI was measured every week to determine muscle and fat changes in OC-501 and 504 alone and combination-treated groups (FIG. 19).

Series [2] has as its system Mouse myoblast strain C2C12. The series can be described thus: Myoblast proliferation (MTT, OD 595 nm) under H2O2. The settings on record: single component 250 nM-20 μM, 400 nM H2O2, 16 hours. In kind it is cell-based.
Procedure: Mouse myoblast strain C2C12 was dispensed in 96-well plates at 1.5×10^3 cells/well, and then cultured in DMEM medium containing 10% fetal bovine serum (FBS) at 37° C. and 5% CO2 for one day at a low density manner. […] At 16 hours since the replacement, the wells were treated with MTT reagent and then the mouse myoblast strain C2C12 was incubated in the DMEM medium in a dark incubator for 3 hours. After removing supernatant therefrom and applying 100 μl of DMSO to the well, the optical density (OD) was measured at 595 nm. Cells were identified using a microscope.
In series [3] the test system is Mouse myoblast strain C2C12. The series can be described thus: Myoblast differentiation (microscope; Western blot of myogenin and MHC). In kind it is cell-based. The note with it: for differentiation of myoblast (microscope): single component 500 nM up to 10 or 20 μM, 400 μM H2O2, 2% horse serum, 5 to 7 days. On the procedure: Mouse myoblast strain C2C12 was dispensed into 12-well plates at 0.7×10^5 cells/well and then cultured to a cell density of 70 to 80%. […] Differentiation of the myoblast was induced for 5 to 7 days while the replacement of the medium occurred every other day. After the differentiation, cells were identified using a microscope (4× and 10× magnification), and cells were disrupted and then Western blot analysis was performed using differentiation markers myogenin and myosin heavy chain (MHC) antibodies.
(§1) Mouse myoblast strain C2C12 was dispensed into 12-well plates at 0.7×10^5 cells/well and then cultured to a cell density of 70 to 80%. The cells were then washed with PBS and then the medium was replaced with DMEM medium (differentiation medium) containing 2% horse serum, 400 μM H2O2, and harmol (OC-503) of 0 nM (DMSO), 500 nM, 1 μM, 2.5 μM, 5 μM, or 10 μM respectively. Differentiation of the myoblast was induced for 5 to 7 days while the replacement of the medium occurred every other day. After the differentiation, cells were identified using a microscope, and cells were disrupted, and then Western blot analysis was performed using differentiation markers myogenin and myosin heavy chain (MHC) antibodies.
as §1, with “H2O2, and calcium pantothenate (OC-504) of 0” for “H2O2, and harmol (OC-503) of 0”, “500 nM, 2.5 μM,” for “500 nM, 1 μM, 2.5 μM,”, “5 μM, 10 μM or 20” for “5 μM, or 10”, “μM or 20 μM respectively.” for “μM, or 10 μM respectively.”, “using a microscope (4× and 10× magnification), and cells” for “using a microscope, and cells”
Mouse myoblast strain C2C12 was dispensed into 12-well plates at 0.7×10^5 cells/well and then cultured to a cell density of 70 to 80%. […] Differentiation of the myoblast was induced for 5 to 7 days while the replacement of the medium occurred every other day. After the differentiation, cells were identified using a microscope (4× and 10× magnification), and cells were disrupted, and then Western blot analysis was performed using differentiation markers myogenin and myosin heavy chain (MHC) antibodies.

The next series relates to Mesenchymal stem cells. As to the kind of experiment: Differentiation markers PAX7/MYF5 (Western blot) in stem cells isolated from cobratoxin-injured muscle. Format: cell-based, mouse. The note with it: OC-501 10 μM, OC-504 5 μM, individually or in combination; 4 days after the application.
For series [4], the system named is tibialis anterior muscle of the mouse. As to the kind of experiment: Early recovery of muscle fibers after cardiotoxin injury. In kind it is in vivo. The note with it: alone 30 mpk, combination each 15 or 30 mpk, 3 days after cardiotoxin.
The mark [5] stands for this setting: anticancer drug administered to CT26-transplanted mice, MRI.

Procedure for Mesenchymal stem cells: Mesenchymal stem cells were isolated on day 3 after cobratoxin was inserted into the tibialis anterior muscle of the mouse. […] West blot analysis was performed using differentiation markers PAX7 (paired box protein-7) and MYF5 (Myogenic factor 5) antibodies. After the differentiation, cells were identified using a microscope (4× and 10× magnification).

In the case of `O=c1[nH]cc(F)c(=O)[nH]1` [5-FU, 5-fluorouracil], in series [1] (setting [5]), the fat decrease is reported as 95% and the muscle amount decrease result is reported as “about 40%”.
Take `CC(C)(CO)[C@@H](O)C(=O)NCCC(=O)O` [calcium pantothenate]: in series [2], the myoblast proliferation entry is given as “not to promote myoblast proliferation”. In addition, the “differentiation of myoblast (microscope)” value in series [3] is on record as “promoted differentiation of myoblast”. Also, the “differentiation promotion (Western blot myogenin and MHC)” value (from here on “differentiation promotion”) in series [3] (single component at 5 μM) and in series [3] (single component at 10 μM) was “increased especially” throughout. Moreover, the “expression of PAX7” value in the series on Mesenchymal stem cells is reported as “increased”. In series [4], the muscle fiber size result is given as “well sparred”. Further, the fat mass entry in series [1] is given as “increased”. Further, the muscle mass entry in series [1] is recorded as “increased”.
Consider `CN(C)CCOC(c1ccccc1)c1ccccc1.Cn1c(=O)c2[nH]c(Cl)nc2n(C)c1=O` [dimenhydrinate], for which the “differentiation promotion” value in series [3] (single component at 5 μM) is “increased especially”. In series [4], the muscle fiber size entry is given as “well sparred”. Moreover, in series [1], the fat mass entry is recorded as “increased” and the muscle mass result is “increased”.
For harmol, the myoblast proliferation entry in series [2] is on record as “not to promote myoblast proliferation”. In series [3], the “differentiation of myoblast (microscope)” value was “promoted differentiation of myoblast”. For the same molecule, the “differentiation promotion” value in series [3] (single component at 5 μM) and in series [3] (single component at 10 μM) was “increased especially” each time.
